A word on the IC50: it is the concentration that gives 50% inhibition.

The experiment addresses T1, HPK1 kinase (aa1-346, Life Technologies) (Homo sapiens, UniProt Q92918).
T1 construct: HPK1 kinase (aa1-346, Life Technologies); purchased Life Technologies
T1 sequence (Q92918 1-346): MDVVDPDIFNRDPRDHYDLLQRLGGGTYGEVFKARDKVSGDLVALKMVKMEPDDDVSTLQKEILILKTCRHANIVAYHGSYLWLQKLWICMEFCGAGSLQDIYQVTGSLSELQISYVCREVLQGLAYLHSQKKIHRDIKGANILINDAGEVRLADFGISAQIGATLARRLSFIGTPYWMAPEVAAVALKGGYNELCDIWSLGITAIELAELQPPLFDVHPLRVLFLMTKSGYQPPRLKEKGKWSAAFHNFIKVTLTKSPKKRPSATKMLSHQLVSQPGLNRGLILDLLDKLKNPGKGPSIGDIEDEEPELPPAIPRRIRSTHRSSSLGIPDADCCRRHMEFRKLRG
The experiment is described as follows: HPK Kinase Activity Assay at 1 mM ATP (TR-FRET). It is filed as biochemical. Conditions: HPK1 kinase 40 nM, 0.5 μM STK1 substrate, read-out: Enzymatic activity IC50. In a few lines:
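HPK1 (aa1-346, 40 nM) was preincubated 60 min at room temperature with compound (0–10 μM) in pH 7.0 HEPES/MgCl2 buffer. Reaction ran 120 min at room temperature with 1 mM ATP and 0.5 μM STK1 substrate. Phosphorylation was read as the TR-FRET 665/620 nm ratio, with IC50 from a four-parameter logistic fit.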
On the technique in general: TR-FRET usually uses a lanthanide donor and a delayed reading to cut background.
On to `Cc1cc(-c2cnc(N)c(-n3cc(C(=O)NC4CC4)cn3)n2)cc2c1CCN(C)C2` [Example 298, 1-(3-amino-6-(2,5-dimethyl-1,2,3,4-tetrahydroisoquinolin-7-yl)pyrazin-2-yl)-N-cyclopropyl-1H-pyrazole-4-carboxamide], for which the IC50 is 4.2 nM.

With `Cc1cc(-c2cnc(N)c(-n3cc(C(=O)NCCN4CCOCC4)cn3)n2)cc2c1CCN(C)C2` [Example 299, 1-(3-amino-6-(2,5-dimethyl-1,2,3,4-tetrahydroisoquinolin-7-yl)pyrazin-2-yl)-N-(2-morpholinoethyl)-1H-pyrazole-4-carboxamide], the IC50 stood at 8.9 nM.

In the case of `Cc1cc(-c2cnc(N)c(-n3cc(C(=O)NCc4ccc(F)cc4Cl)cn3)n2)cc2c1CCN(C)C2` [Example 300, 1-(3-amino-6-(2,5-dimethyl-1,2,3,4-tetrahydroisoquinolin-7-yl)pyrazin-2-yl)-N-(2-chloro-4-fluorobenzyl)-1H-pyrazole-4-carboxamide], the IC50 is 7.5 nM.

As to `Cc1cc(-c2cnc(N)c(-n3cc(C(=O)N(C)CCN4CCCC4)cn3)n2)cc2c1CCN(C)C2` [Example 302, 1-(3-amino-6-(2,5-dimethyl-1,2,3,4-tetrahydroisoquinolin-7-yl)pyrazin-2-yl)-N-methyl-N-(2-(pyrrolidin-1-yl)ethyl)-1H-pyrazole-4-carboxamide], the IC50 is 54 nM.

Turning to `Cc1cc(-c2cnc(N)c(Oc3cnn(CC(F)(F)F)c3)n2)cc2c1CCN(C)C2` [Example 303, 5-(2,5-dimethyl-1,2,3,4-tetrahydroisoquinolin-7-yl)-3-((1-(2,2,2-trifluoroethyl)-1H-pyrazol-4-yl)oxy)pyrazin-2-amine], the half-maximal inhibitory concentration (IC50) was 16 nM.

Consider `Cc1cc(-c2cnc(N)c(-n3cc(C(=O)N(C)CC4CCOC4)cn3)n2)cc2c1CCN(C)C2` (stereo not drawn) [Example 304, 1-(3-amino-6-(2,5-dimethyl-1,2,3,4-tetrahydroisoquinolin-7-yl)pyrazin-2-yl)-N-methyl-N-((tetrahydrofuran-3-yl)methyl)-1H-pyrazole-4-carboxamide], for which the IC50 worked out at 10 nM.

For `Cc1cc(-c2cnc(N)c(-n3cc(C(=O)NC4CCOC4)cn3)n2)cc2c1CCN(C)C2` (stereo not drawn) [Example 305, 1-(3-amino-6-(2,5-dimethyl-1,2,3,4-tetrahydroisoquinolin-7-yl)pyrazin-2-yl)-N-(tetrahydrofuran-3-yl)-1H-pyrazole-4-carboxamide], the IC50 was determined as 8.9 nM.

On to `Cc1cc(-c2cnc(N)c(-n3cc(C(=O)N(C)C4CCOC4)cn3)n2)cc2c1CCN(C)C2` (stereo not drawn) [Example 306, 1-(3-amino-6-(2,5-dimethyl-1,2,3,4-tetrahydroisoquinolin-7-yl)pyrazin-2-yl)-N-methyl-N-(tetrahydrofuran-3-yl)-1H-pyrazole-4-carboxamide], for which the IC50 was 89 nM.

Turning to `Cc1cc(-c2cnc(N)c(Oc3cnn(C4CCN(C)CC4)c3)n2)cc2c1CCN(C)C2` [Example 307, 5-(2,5-dimethyl-1,2,3,4-tetrahydroisoquinolin-7-yl)-3-(1-(1-methylpiperidin-4-yl)-1H-pyrazol-4-yloxy)pyrazin-2-amine], the 50% inhibitory concentration (IC50) was determined as 5.9 nM.

`Cc1cc(-c2cnc(N)c(Oc3cnn(CCC#N)c3)n2)cc2c1CN(C)CC2` [Example 308, 3-(4-((3-amino-6-(2,8-dimethyl-1,2,3,4-tetrahydroisoquinolin-6-yl)pyrazin-2-yl)oxy)-1H-pyrazol-1-yl)propanenitrile]: the 50% inhibitory concentration (IC50) is 48 nM.

Regarding `Cc1cc(-c2cnc(N)c(Oc3cnn(C4CCOCC4)c3)n2)cc2c1CCN(C)C2` [Example 309, 5-(2,5-dimethyl-1,2,3,4-tetrahydroisoquinolin-7-yl)-3-(1-(tetrahydro-2H-pyran-4-yl)-1H-pyrazol-4-yloxy)pyrazin-2-amine], the IC50 is 22 nM.

Regarding `CCN1CC(n2cc(Oc3nc(-c4cc(C)c5c(c4)CN(C)CC5)cnc3N)cn2)C1` [Example 310, 5-(2,5-dimethyl-1,2,3,4-tetrahydroisoquinolin-7-yl)-3-(1-(1-ethylazetidin-3-yl)-1H-pyrazol-4-yloxy)pyrazin-2-amine], the half-inhibitory concentration (IC50) stood at 20 nM.

Source of the values: US12673933B2, “Aminopyrazine compounds as HPK1 inhibitor and the use thereof” (BEIGENE, LTD., priority 2019, dated 2026).
